In US20240180923A1, “METHODS OF TREATING DISORDERS WITH ULK INHIBITORS” (Deciphera Pharmaceuticals, LLC, priority 2022, published 2024):
“Also recorded” adds a separate entry of the source.

Tested on: autophagic flux in Colo-205 cells
Assay: Autophagy flux (LC3 degradation) assay in Colo-205 cells
Assay type: cell-based
Settings: FIGS. 24 and 25
Protocol: Constructs were designed through VectorBuilder. For the Colo-205 cell line, 10 mL of appropriate media was mixed with Polybrene (VectorBuilder, Cat #PL0001, stock concentration 5 mg/mL, 200 μL) to a final concentration of 15 ng/μL. These solutions were added to the 6-well plate with cells plated the previous day. Cells were checked after 22 hours of incubation. Media was then removed from the cells and cells were incubated with fresh media containing puromycin (Sigma Cat #P9620). Cells that survived puromycin selection and successfully expressed mCherry-GFP-LC3 were used for flux assays.
Cells were seeded in FluoroBrite DMEM (Gibco Ref #A18967-01) supplemented with 10% FBS (Gibco ref #A384000-001) and Pen/Strep/Glutamine (Gibco Ref #10378-016) at appropriate seeding numbers defined empirically. The next day, cells were treated with DCC-3116 and/or encorafenib and cetuximab or DMSO as a control. Cells were placed in the IncuCyte for live cell imaging over the indicated time length at 37° C. with 20% 02 and 5% CO2. Cells were imaged at 4× objective lens every four hours. The data was analyzed using the Incucyte software by measuring Total Integrated Intensity (GCUX μm^2/images) of read (mCherry) divided by (GCUX μm^2/images) of green (GFP) to measure the ratio of red/green signal change over time.

CCc1cc(N2CCN(C)CC2)ccc1Nc1ncc(C(F)(F)F)c(NCCCN2CCOCCC2=O)n1 [DCC-3116]
effect on encorafenib- and cetuximab-induced autophagic flux (LC3 degradation): inhibited; also recorded: dose-dependent inhibition
